This note sets out measurements from PubChem BioAssay AID192 (DTP/NCI, 2004).

This assay relates to BDF1 mice, B16 melanoma ip, median survival T/C. Briefly: NCI In Vivo Anticancer Drug Screen. Data for tumor model B16 Melanoma (intraperitoneal) in B6D2F1 (BDF1) mice. To be noted: endpoint: median survival time, higher = longer survival. The method in brief:
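The ratio T/C compares compound-treated mice with vehicle-treated controls, using survival or tumor size as the endpoint in a transplantable tumor model.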

The mark [1] stands for this setting: dose: 100.0 mg/kg/injection, schedule: Q01DX009 (ip), vehicle: Klucel (hydroxypropylcellulose) (HPC).
Where [2] appears, read: dose: 200.0 mg/kg/injection, schedule: Q01DX009 (ip), vehicle: Klucel (hydroxypropylcellulose) (HPC).
Setting [3] is: dose: 400.0 mg/kg/injection, schedule: Q01DX009 (ip), vehicle: Klucel (hydroxypropylcellulose) (HPC).
[4] abbreviates: dose: 50.0 mg/kg/injection, schedule: Q01DX009 (ip), vehicle: saline.
[5] abbreviates: dose: 100.0 mg/kg/injection, schedule: Q01DX009 (ip), vehicle: saline.
Where [6] appears, read: dose: 200.0 mg/kg/injection, schedule: Q01DX009 (ip), vehicle: saline.
Setting [7] is: dose: 100.0 mg/kg/injection, schedule: Q04DX003 (ip), vehicle: Klucel (hydroxypropylcellulose) (HPC).
[8] abbreviates: dose: 200.0 mg/kg/injection, schedule: Q04DX003 (ip), vehicle: Klucel (hydroxypropylcellulose) (HPC).
Setting [9] is: dose: 400.0 mg/kg/injection, schedule: Q04DX003 (ip), vehicle: Klucel (hydroxypropylcellulose) (HPC).
Setting [10] is: dose: 0.1 mg/kg/injection, schedule: Q01DX009 (ip), vehicle: saline with Tween-80.
Setting [11] is: dose: 0.2 mg/kg/injection, schedule: Q01DX009 (ip), vehicle: saline with Tween-80.
Where [12] appears, read: dose: 0.4 mg/kg/injection, schedule: Q01DX009 (ip), vehicle: saline with Tween-80.

Structures are written as SMILES. “And” between values parts separate entries of the source, which are not always exact repeats. Equal entries are not always repeated. Toxic doses and inconclusive results are not listed. Square brackets hold non-standard residues; d marks the D form. Peptide text beside a SMILES is read from it. ξ: configuration not given here. ξV = CC(C)C(N)C(=O)O

Regarding `CC[CH2][Sn]([Cl])([Cl])[CH2]CC.Oc1ccccc1C=NCCN=Cc1ccccc1O`, the T/C was 95 % of control (dose: 0.6 mg/kg/injection, schedule: Q01DX009 (ip), vehicle: gum acacia); 100 % of control (dose: 0.61 mg/kg/injection, schedule: Q01DX009 (ip), vehicle: gum acacia); 92 % of control and 100 % of control (dose: 1.25 mg/kg/injection, schedule: Q01DX009 (ip), vehicle: gum acacia); 92 % of control and 94 % of control (dose: 2.5 mg/kg/injection, schedule: Q01DX009 (ip), vehicle: gum acacia); 90 % of control and 97 % of control (dose: 5.0 mg/kg/injection, schedule: Q01DX009 (ip), vehicle: gum acacia).
Turning to `CCCCC(CCC)(CCN)CCCC`, the T/C by setting is: (dose: 1.0 mg/kg/injection, schedule: Q01DX009 (ip), vehicle: saline sonified) 102 % of control; (dose: 2.0 mg/kg/injection, schedule: Q01DX009 (ip), vehicle: saline sonified) 97 % of control; (dose: 4.0 mg/kg/injection, schedule: Q01DX009 (ip), vehicle: saline sonified) 100 % of control.
In the case of `CO[C@H]1C[C@@H]2CC[C@@H](C)[C@@](O)(O2)C(=O)C(=O)N2CCCC[C@H]2C(=O)O[C@H]([C@H](C)C[C@@H]2CC[C@@H](O)[C@H](OC)C2)CC(=O)[C@H](C)C=C(C)[C@@H](O)[C@@H](OC)C(=O)[C@H](C)C[C@H](C)/C=C/C=C/C=C1C`, the T/C runs as follows: (dose: 190.0 mg/kg/injection, schedule: Q01DX001 (ip), vehicle: saline with Tween-80) 159 % of control; (dose: 200.0 mg/kg/injection, schedule: Q01DX009 (ip), vehicle: saline with Tween-80) 110 % of control; (dose: 380.0 mg/kg/injection, schedule: Q01DX001 (ip), vehicle: saline with Tween-80) 112 % of control; (dose: 400.0 mg/kg/injection, schedule: Q01DX009 (ip), vehicle: saline with Tween-80) 109 % of control; (dose: 760.0 mg/kg/injection, schedule: Q01DX001 (ip), vehicle: saline with Tween-80) 123 % of control.
Take `COc1ccc(NC(=O)Nc2ccc(Cl)cc2C)cc1`: the T/C was 101 % of control (dose: 100.0 mg/kg/injection, schedule: Q01DX009 (sc), vehicle: olive oil, sesame oil, peanut oil); 111 % of control (dose: 200.0 mg/kg/injection, schedule: Q01DX009 (sc), vehicle: olive oil, sesame oil, peanut oil); 103 % of control (dose: 400.0 mg/kg/injection, schedule: Q01DX009 (sc), vehicle: olive oil, sesame oil, peanut oil).
Consider `CCOC(=O)C1=NN(c2ccccc2)C(=O)C1`, for which the T/C is, setting by setting: under setting [1], 97 % of control; under setting [2], 97 % of control; under setting [3], 97 % of control.
Regarding `O=C(O)c1ccc(S(=O)(=O)O)cc1C(=O)O`, the T/C was 92 % of control under setting [4], 96 % of control under setting [5] and 98 % of control under setting [6].
Take `OCc1cc2ccccc2[nH]1`: the T/C reads like this: under setting [7], 112 % of control; under setting [8], 110 % of control; under setting [9], 106 % of control.
`CCCCNC(C)(C)C(SSSC(c1ccco1)C(C)(C)NCCCC)c1ccco1` (stereo not drawn): the T/C is, setting by setting: (dose: 3.13 mg/kg/injection, schedule: Q01DX009 (ip), vehicle: carboxymethylcellulose (CMC)) 102 % of control; (dose: 6.25 mg/kg/injection, schedule: Q01DX009 (ip), vehicle: carboxymethylcellulose (CMC)) 102 % of control; (dose: 12.5 mg/kg/injection, schedule: Q01DX009 (ip), vehicle: carboxymethylcellulose (CMC)) 95 % of control; (dose: 25.0 mg/kg/injection, schedule: Q01DX009 (ip), vehicle: Klucel (hydroxypropylcellulose) (HPC)) 91 % of control; (dose: 25.0 mg/kg/injection, schedule: Q01DX009 (ip), vehicle: carboxymethylcellulose (CMC)) 86 % of control.
With `COc1ccc(NC(=O)Oc2cc(C)cc(C)c2)cc1`, the T/C runs as follows: under setting [1], 96 % of control; under setting [7], 112 % of control; under setting [2], 96 % of control; under setting [8], 106 % of control; under setting [3], 89 % of control; under setting [9], 112 % of control.
For `CC[N+]1(CC)CC[N+]2(CC1)CC[N+]1(CC[N+](CC)(CC)CC1)CC2`, the T/C is, setting by setting: under setting [4], 94 % of control; under setting [5], 100 % of control; under setting [6], 94 % of control.
Take `COc1cc2cnccc2cc1O`: the T/C runs as follows: (dose: 12.5 mg/kg/injection, schedule: Q01DX009 (ip), vehicle: water) 104 % of control; (dose: 25.0 mg/kg/injection, schedule: Q01DX009 (ip), vehicle: water) 102 % of control; (dose: 50.0 mg/kg/injection, schedule: Q01DX009 (ip), vehicle: water) 103 % of control; (dose: 100.0 mg/kg/injection, schedule: Q01DX009 (ip), vehicle: water) 109 % of control.
With `Cc1ccc2c(c1)n([O-])c1cc(Cl)ccc1[n+]2=O`, the T/C was 115 % of control (dose: 12.5 mg/kg/injection, schedule: Q01DX009 (ip), vehicle: saline with Tween-80) and 122 % of control (dose: 100.0 mg/kg/injection, schedule: Q01DX009 (ip), vehicle: saline with Tween-80).
Regarding `CCCCCCCC(O)CCCC` (stereo not drawn), the T/C is, setting by setting: under setting [1], 92 % of control; under setting [2], 98 % of control; under setting [3], 86 % of control.
Regarding `CNC(=O)c1cccc2c(Nc3ccc(NS(C)(=O)=O)cc3OC)c3cccc(C)c3nc12`, the T/C is, setting by setting: (dose: 1.5 mg/kg/injection, schedule: Q01DX009 (ip), vehicle: water) 162 % of control; (dose: 3.0 mg/kg/injection, schedule: Q01DX009 (ip), vehicle: water) 201 % of control.
`CC(C)C(NC(=O)CNC(=O)CN)C(=O)O` (stereo not drawn) (H-Gly-Gly-[ξV]-OH): the T/C was 95 % of control under setting [5]; 100 % of control (dose: 100.0 mg/kg/injection, schedule: Q04DX003 (ip), vehicle: saline); 97 % of control under setting [6]; 97 % of control (dose: 200.0 mg/kg/injection, schedule: Q04DX003 (ip), vehicle: saline); 95 % of control (dose: 400.0 mg/kg/injection, schedule: Q01DX009 (ip), vehicle: saline); 95 % of control (dose: 400.0 mg/kg/injection, schedule: Q04DX003 (ip), vehicle: saline).
Turning to `C=C(C)C12OC3(c4ccccc4)OC1C1C4OC4(CO)C(O)C4(O)C(=O)C(C)=CC4C1(O3)C(C)C2OC(=O)c1ccccc1` (stereo not drawn), the T/C is, setting by setting: under setting [10], 99 % of control; under setting [11], 101 % of control; under setting [12], 98 % of control.
Turning to `CCOc1ccccc1NC(=O)COc1ccc(Cl)cc1`, the T/C is 106 % of control under setting [1], 96 % of control under setting [2] and 100 % of control under setting [3].
With `C[n+]1ccc(C#N)c2ccccc21`, the T/C is 102 % of control (dose: 3.75 mg/kg/injection, schedule: Q01DX009 (ip), vehicle: saline) and 93 % of control (dose: 7.5 mg/kg/injection, schedule: Q01DX009 (ip), vehicle: saline).
For `C=C(OC1C(C)=C2C(C1OC(=O)CCCCCCC)C(C)(OC(C)=O)CC(OC(=O)CCC)C1(O)C2OC(=O)C1(C)O)/C(C)=C/C` (stereo not drawn), the T/C runs as follows: (dose: 0.37 mg/kg/injection, schedule: Q01DX009 (ip), vehicle: Klucel (hydroxypropylcellulose) (HPC)) 97 % of control; (dose: 1.5 mg/kg/injection, schedule: Q01DX009 (ip), vehicle: Klucel (hydroxypropylcellulose) (HPC)) 99 % of control; (dose: 3.0 mg/kg/injection, schedule: Q01DX009 (ip), vehicle: Klucel (hydroxypropylcellulose) (HPC)) 115 % of control.
For the compound `Cc1ccccc1N=Cc1ccc2c(c1)OCO2`, the T/C was 102 % of control (dose: 50.0 mg/kg/injection, schedule: Q01DX009 (ip), vehicle: Klucel (hydroxypropylcellulose) (HPC)); 95 % of control under setting [1]; 100 % of control under setting [2].
Turning to `O=S(=O)(F)c1cc(C[P+](c2ccccc2)(c2ccccc2)c2ccccc2)ccc1Cl`, the T/C reads like this: under setting [10], 105 % of control; (dose: 0.1 mg/kg/injection, schedule: Q04DX003 (ip), vehicle: saline with Tween-80) 112 % of control; under setting [11], 90 % of control; (dose: 0.2 mg/kg/injection, schedule: Q04DX003 (ip), vehicle: saline with Tween-80) 110 % of control; under setting [12], 100 % of control; (dose: 0.4 mg/kg/injection, schedule: Q04DX003 (ip), vehicle: saline with Tween-80) 110 % of control. The T/C is, setting by setting: (dose: 3.0 mg/kg/injection, schedule: Q04DX003 (ip), vehicle: saline with Tween-80) 86 % of control; (dose: 12.5 mg/kg/injection, schedule: Q04DX003 (ip), vehicle: saline with Tween-80) 86 % of control.
